Consider 1 molecule from paper PMC7987348, “Structural basis for human TRPC5 channel inhibition by two distinct inhibitors” (eLife, 2021).

One may read the Hill slope as a measure of the steepness of the concentration-response curve.

One assay addresses T1, hTRPC5 N443L (Homo sapiens, UniProt Q9UL62, N443L).
T1 construct: We use full-length nontagged hTRPC5 construct for FLIPR assay unless indicated otherwise; expressed in transfected cells; host or cells: AD293
T1 sequence (Q9UL62 1-973 N443L): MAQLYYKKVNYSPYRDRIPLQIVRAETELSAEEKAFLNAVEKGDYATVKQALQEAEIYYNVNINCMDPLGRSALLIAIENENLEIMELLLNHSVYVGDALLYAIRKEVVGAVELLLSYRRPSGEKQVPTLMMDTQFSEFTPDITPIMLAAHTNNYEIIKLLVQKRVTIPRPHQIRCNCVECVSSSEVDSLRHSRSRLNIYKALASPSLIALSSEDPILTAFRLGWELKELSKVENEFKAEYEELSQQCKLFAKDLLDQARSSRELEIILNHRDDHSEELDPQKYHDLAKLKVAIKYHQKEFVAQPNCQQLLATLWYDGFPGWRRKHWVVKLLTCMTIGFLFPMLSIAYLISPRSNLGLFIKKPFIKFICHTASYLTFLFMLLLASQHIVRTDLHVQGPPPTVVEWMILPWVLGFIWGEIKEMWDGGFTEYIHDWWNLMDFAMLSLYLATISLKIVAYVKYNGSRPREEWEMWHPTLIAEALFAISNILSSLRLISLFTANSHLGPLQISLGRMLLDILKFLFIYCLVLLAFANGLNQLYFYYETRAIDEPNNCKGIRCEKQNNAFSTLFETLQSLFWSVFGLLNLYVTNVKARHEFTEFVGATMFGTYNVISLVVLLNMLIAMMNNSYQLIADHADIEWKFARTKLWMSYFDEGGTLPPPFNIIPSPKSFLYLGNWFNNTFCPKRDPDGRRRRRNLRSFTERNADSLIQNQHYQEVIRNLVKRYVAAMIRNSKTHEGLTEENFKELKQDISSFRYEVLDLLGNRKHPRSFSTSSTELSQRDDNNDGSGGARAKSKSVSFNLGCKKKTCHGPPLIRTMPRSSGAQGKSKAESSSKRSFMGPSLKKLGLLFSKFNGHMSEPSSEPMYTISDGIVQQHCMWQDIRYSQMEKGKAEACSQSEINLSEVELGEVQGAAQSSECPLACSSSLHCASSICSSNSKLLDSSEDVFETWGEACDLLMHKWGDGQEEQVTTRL
Kind of assay: FLIPR calcium assay, hTRPC5 mutant N443L. The class given is cell-based. On the procedure:
[…]. Then the suspended cell culture was further diluted for 5.4- to 7-fold with culture medium and seeded onto black well, clear bottom, poly-D-lysine-coated 96-well plate (Costar) and cultured overnight. We use full-length nontagged hTRPC5 construct for FLIPR assay unless indicated otherwise. hTRPC5 plasmids were transfected into AD293 cells (60-80% confluence) with PEI. 30–40 hr post-transfection, culture medium was discarded and cells were incubated with 50 μl per well of 4 μM Rhod-2/AM (AAT Bioquest) in TARODES’s buffer (10 mM HEPES, 150 mM NaCl, 4 mM KCl, 2 mM MgCl2, 2 mM CaCl2, 11 mM glucose, pH 7.4) supplemented with 0.02% Pluronic F-127 (Sigma) for 5 min in dark at room temperature. Then dye was removed and replaced with 50 μl of TARODE’s buffer per well. The application of compounds and detection of intracellular calcium elevation were performed using FLIPR-TETRA (Molecular Devices) at room temperature (25–27°C). Fluorescence signals were read with excitation/emission at 510–545/565–625 nm.
[…]. Then fluorescence was measured for 300 s.
Buffer A contains 2× concentration of working concentration of inhibitor. […]. for control-Min, both buffer A and buffer B were replaced by TARODE’s buffer.
[…]; the average of fluorescence value of last 20 time points was considered as the ‘end fluorescence’. The value of ‘end fluorescence’ minus ‘start fluorescence’ was considered as ‘signal value’ for each well. […].
Three independent experiments were performed on different days (biological replicates), with each experiment containing three replicates (technique replicates).

A further assay relates to TRPC5. Details: method as in Richter et al., 2014; Zhou et al., 2017; Zhu et al., 2015. The conditions noted are these: ref Richter et al., 2014; Zhou et al., 2017; Zhu et al., 2015; read-out: IC50 for inhibition of TRPC5; cited from earlier work.
The target of the next assay is T2, hTRPC5_1-764 (Homo sapiens, UniProt Q9UL62).
T2 sequence (Q9UL62 1-764): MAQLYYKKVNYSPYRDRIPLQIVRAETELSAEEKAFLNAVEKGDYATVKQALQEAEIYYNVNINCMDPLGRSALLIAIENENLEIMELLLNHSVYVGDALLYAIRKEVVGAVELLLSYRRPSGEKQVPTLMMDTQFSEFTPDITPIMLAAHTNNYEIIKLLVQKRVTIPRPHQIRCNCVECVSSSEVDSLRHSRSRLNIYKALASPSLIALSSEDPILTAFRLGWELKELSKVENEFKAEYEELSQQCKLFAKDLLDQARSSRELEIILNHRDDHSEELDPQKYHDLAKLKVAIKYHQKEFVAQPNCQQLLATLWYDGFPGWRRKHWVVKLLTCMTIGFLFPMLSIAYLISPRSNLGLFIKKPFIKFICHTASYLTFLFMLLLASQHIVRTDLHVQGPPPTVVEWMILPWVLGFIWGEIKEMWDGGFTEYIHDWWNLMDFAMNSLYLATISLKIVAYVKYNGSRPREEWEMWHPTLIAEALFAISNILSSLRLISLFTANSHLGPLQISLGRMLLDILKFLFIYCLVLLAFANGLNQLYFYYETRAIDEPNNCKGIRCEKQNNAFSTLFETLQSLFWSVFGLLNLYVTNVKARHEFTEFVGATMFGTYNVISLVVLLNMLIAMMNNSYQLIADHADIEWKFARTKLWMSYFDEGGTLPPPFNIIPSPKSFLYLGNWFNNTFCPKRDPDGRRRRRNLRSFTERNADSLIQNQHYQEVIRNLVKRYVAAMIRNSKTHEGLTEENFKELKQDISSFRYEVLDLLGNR
As to the kind of experiment: FLIPR calcium assay, C-terminally truncated construct hTRPC5_1-764. The conditions noted are these: 14 mM extracellular calcium; AD293 cells.

Another assay deals with TRPC3/6. Set-up: method as in Richter et al., 2014. The conditions noted are these: ref Richter et al., 2014; cited from earlier work.

Where two headings read alike, the source gives them in different places.

In the case of `Clc1ccc(Cn2c(CN3CCCC3)nc3ccccc32)cc1` [CMZ, clemizole], the Hill slope at hTRPC5 N443L (CMZ) is reported as −2.42. Also, the IC50 is 10.4 µM on hTRPC5 N443L (CMZ, 14 mM extracellular calcium, read-out: IC50); 10.5 µM on hTRPC5 N443L (CMZ, log of IC50 in μM, logIC50 ± SEM, n = 3, read-out: LogIC50 (converted)); 1 to 1.3 µM in the assay with TRPC5. Further, on hTRPC5 N443L (read-out: normalized RFU (% WT), Clemizole 0.400391 μM, 14 mM Ca2+, each column one independent experiment), the remaining activity at 0.400391 µM amounted to 89.5%. The remaining activity at 0.800781 µM at hTRPC5 N443L (read-out: normalized RFU (% WT), Clemizole 0.800781 μM, 14 mM Ca2+, each column one independent experiment) was 64.6%. The remaining activity at 3.20312 µM on hTRPC5 N443L (read-out: normalized RFU (% WT), Clemizole 3.20312 μM, 14 mM Ca2+, each column one independent experiment) was found to be 56.3%. The remaining activity at 6.40625 µM on hTRPC5 N443L (read-out: normalized RFU (% WT), Clemizole 6.40625 μM, 14 mM Ca2+, each column one independent experiment) turned out to be 52.8%. Further, on hTRPC5_1-764, the “inhibition of hTRPC5_1-764” value is on record as “can be inhibited”. In the assay on TRPC3/6, the “fold more potent against TRPC5 than TRPC3/6” value is 10 fold.
